Data as given in patent US20080009448A1, “Peptide Derivative” (priority 2006, published 2008).
Like-named read-outs stand apart in the source and are kept apart here.

Assays:
Format in all cases: in vivo, mouse
inflammatory pain model = assay: Rheumatoid arthritis / inflammatory pain model (CFA), Von Frey filament method; settings: for ED50: Mus musculus, po, read-out: ED50 of the anti-nociceptive activity calculated using the unit-time AUC value
Procedure: Experimental animal, male ddy type mice (Nihon SLC), weighing the body weight in the range of 15 to 20 g, were used for the studies. The animals had been kept under constant conditions (room temperature 23±1° C., humidity 52±2%, 12 hours light-and-dark cycle having light time 7:00 to 19:00 and dark time 19:00 to 7:00) until used for an experiment. The animals were fed the mouse solid diet (F2, Funabashi farm. Funabashi, Japan) with unrestricted tap water intake, and kept in captivity for at least more than two days in a laboratory.
A mouse was firmly fixed without anesthesia and 25 μL of Complete Freund's Adjuvant (CFA) using a number 30 guage needle (Termo) was subcutaneously administered into the dorsum of left hind foot to provide an inflammatory pain model. The model was kept under the conditions noted above until used for the test.
Measurement of anti-nociceptive activity on the inflammatory pain model was conducted according to Von Fray filament method as well as on never damaged model 5 days after CFA administration. The drugs were orally administered.
The anti-nociceptive activity is represented as a unit AUC value (AUC/min) which is the total AUC value or AUC divided by the measurement time and compared to study. ED50 of the anti-nociceptive activity was calculated by reducing the measurement value to a percentage of the upper limit which was set as 2.0 for the unit AUC.

[1] = system: nerve damage model animal; assay: Allodynia experiment, nerve damage model (partial sciatic nerve ligation), Von Frey filament method; settings: for anti-allodynia effect in animals with ligated sciatic nerve: s.c. administration, Von Frey filament
Procedure: Further the anti-nociceptive activity test using a nerve damage model envisioning a neuropathic pain was performed.
Preparation of the Nerve-Damage Model was Conducted According to the model created by Seltzer (partial sciatic nerve ligation: RSL model).
Specifically the amount of 0.1 mL/10 g of Nembutal solution 7 times diluted with Ringer's solution (Fuso Pharmaceutical Kogyo) was injected into the peritoneal cavity of mouse using 26 gauge needle (Termo) to give anesthetic. The animal was lain on its stomach, its femoral skin was cut open to incise through the fascia, the part between the heads of the biceps femoris was cut and then its sciatic nerve was fixed. The ⅓ to ½ part of the […] around the sciatic nerve detached without damaging was completely ligated with a nylon suture thread No. 9 (Natsume Seisakusho) using a vascular needle 000 spring hole (Natsume Seisakusho). Further the cut skin was sutured with the silk thread No. 2 (Natsume Seisakusho) using a surgical needle 1 spring needle (Natsume Seisakusho). After the operation, the mice had been kept until the testing date under the above conditions.
The measurement of allodynia effect on the nerve-damage model animals was conducted according to the Von Frey filament method 7 days after the nerve ligation.
Then a few kinds of filaments having different strength of stimulus (Touch-test Sensory Evaluator Instruction North Coast Medical Inc.) were pushed perpendicularly on the sole of the hinder leg until the filament was bent.
Further, for comparison, the left lower leg of the animal without nerve-damage was also stimulated and the threshold values were measured. AUCs (the area surrounded with the time-reaction curve and the base line of a graph showing the relationship between the time after administration (time-course) and % MPE) were calculated from the obtained results. Antiallodynia activity obtained from the AUC divided by the measuring time was compared as strength of activity per unit of the time period.

pressure stimulation = assay: Tail-pressure test; settings: either oral or subcutaneous administration (FIG. 67, 68)
Procedure: The maximum pressure was 100 mmHg. The mice used for the experiment reacted to the pressure range between 40 mmHg and 50 mmHg in pre-selective experiment. A few mice or a few dozen of mice under the same condition were stimulated by adding pressure and respective threshold values for the pain reaction were measured in constant intervals after administration in accordance with different drugs administered and the different dosage thereof. According to the measurement value of the pain reaction threshold value, a percent of maximum possible effect, (% of MPE) was calculated using the following formula to quantify the anti-nociceptive activity. % of MPE=[(Pt−P0)/(Pc−Po)]×100 (in the formula, Po is a pain reaction threshold value before drug administration; Pt is a pain reaction threshold value t minute after drug administration; and Pc is a maximum simulative pressure)
The mouse which reacted to 532 through 665 Pa (40-50 mmHg) was reselected for the test. In addition the maximal stimulating pressure was set as 1333 Pa (100 mmHg). Then % MPE at this point was calculated from formula (1) as well as noted above.

Compound	ED50 (inflammatory pain model; CFA administered foot)	ED50 (inflammatory pain model; CFA non-administered foot)	lasting time of anti-nociceptive activity (inflammatory pain model; mice, CFA model, oral)	peak of anti-nociceptive activity after administration (inflammatory pain model; mice, CFA model, oral)	anti-allodynia effect in animals with ligated sciatic nerve [1]	dosage providing the same AUC, as part of morphine dosage (pressure stimulation)	lasting period of anti-nociceptive activity compared with morphine ([1]; nerve damage model, s.c., at dose of equal activity)
CN1CC[C@]23c4c5ccc(O)c4O[C@H]2[C@@H](O)C=C[C@H]3[C@H]1C5 [Morphine]	113 mg/kg	67.9 mg/kg	360 min	30 min	significantly decreased	–	–
Iminoethyl-[Tyr]-[D-Met(O)]-[Phe]-[N-MeβAla]-NHCH3 [SS8225-07]	–	–	–	–	decrease of anti-allodynia effect was not observed at any doses	one hundredth through one twentieth	about twice longer
